The source of these data is publication PMC5503262, “Solution conformations of Zika NS2B-NS3pro and its inhibition by natural products from edible plants” (PLoS ONE, 2017).

“And” between values parts separate entries of the source, which are not always exact repeats. Equal values may be shown once. “Also recorded” adds a separate entry of the source. Read-outs that look alike come from different tables or passages of the source.

One test has as its target linked Zika NS2B-NS3pro. The following applies: linked enzyme, assay buffer pH 7; cited from earlier work.
Test [1] deals with T1, Zika NS2B-NS3pro (unlinked complex) (Zika virus, UniProt A0A024B7W1).
T1 construct: DNA fragments encoding the isolated NS3 (14–185) and NS2B (48–100) with the transmembrane regions removed; His-tag (cleaved yes); made in house; host or cells: Escherichia coli BL21 (DE3) Star
The experiment in a line: Inhibition of unlinked Zika NS2B-NS3pro, fluorogenic substrate Bz-nKRR-AMC. Type of test: biochemical. Particulars: for IC50 / Inhibition at 500 μM: Bz-nKRR-AMC 250 μM; for Inhibition at 500 μM: initial screening, compound 500 μM, protease 50 nM; for inhibitory activity (in words): compound concentration up to 500 μM. How it is done: Due to the urgency to fight ZIKV infection, we attempted to screen the inhibitors of Zika NS2B-NS3pro from natural products rich in edible plants. To better reflect the situation in vivo, here we selected the unlinked Zika NS2B-NS3pro complex for screening. However as most natural products are largely insoluble in aqueous buffers, we have assessed effects of DMSO and glycerol on the conformations (Fig 1E and 1F) as well as on catalytic parameters (Table 1). Consequently, 50 mM Tris buffer at pH 8.5 + 20% Glycerol was utilized as the screening buffer as it could dissolve all natural products in the present study but has no significant effect on the conformation of Zika NS2B-NS3pro (Fig 1F).
To allow comparison with the NS2B-NS3pro complexes of four Dengue serotypes (17), we selected three fluorophore-tagged substrates previously used (17): namely Bz-Nle-Lys-Arg-Arg-AMC, Boc-Gly-Arg-Arg-AMC and Boc-Gly-Lys-Arg-AMC (Bachem AG, Bubendorf), which were dissolved in dimethyl sulfoxide for preparing stock solutions (100 mM). All enzymatic experiments were performed in triplicate and data are presented as mean ± SD, while IC50, Km and Ki were obtained by fitting with GraphPad Prism 7.0 [61].
All natural products were purchased from Sigma-Aldrich, which are all HPLC purified. After optimization of buffer conditions, here, we selected 50 mM Tris-HCl buffer at pH 8.5 in the presence of 20% glycerol which could dissolve all natural products. Briefly, for the initial screening, the Zika protease at 50 nM was preincubated for 30 min with different compounds at final concentrations of 5 and 500 μM dissolved in 1 μl DMSO, followed by adding Bz-nKRR-AMC to 250 μM to initiate reaction. Only the compounds showing significant inhibitions at both concentrations were subjected to further determination of IC50 and Ki.
For Ki determination, the assay was performed with different final concentrations of the inhibitors and substrate. Briefly, the Zika protease at 50 nM was preincubated with the inhibitor at different concentrations for 30 min at 37°C. Subsequently, the reaction was initiated by addition of the corresponding concentration series of the substrate. All measurements were performed in triplicate and data are presented as mean ± SD. The Ki was obtained by fitting in the non-competitive inhibition mode with GraphPad Prism 7.0, with an equation: Vmaxinh = Vmax/(1+I/Ki), while I is the concentration of inhibitor [61].

The next test concerns the target Dengue-2 NS2B-NS3pro. More on the design: method as in PMID 25564380. Particulars: allosteric inhibition, previously characterized; cited from earlier work.
The mark [2] stands for this setting: IC50, protease 50 nM preincubated 30 min at 37°C, 50 mM Tris-HCl pH 8.5 + 20% glycerol, mean ± SD, triplicate.
[3] abbreviates: 50 mM Tris-HCl pH 8.5 + 20% glycerol.
Where [4] appears, read: non-competitive fit, protease 50 nM preincubated 30 min at 37°C, 50 mM Tris-HCl pH 8.5 + 20% glycerol, mean ± SD, triplicate, read-out: Ki.
Setting [5] is: protease 50 nM preincubated 30 min at 37°C, 50 mM Tris-HCl pH 8.5 + 20% glycerol, mean ± SD, triplicate, read-out: IC50.
Where [6] appears, read: Ki, non-competitive fit, protease 50 nM preincubated 30 min at 37°C, 50 mM Tris-HCl pH 8.5 + 20% glycerol, mean ± SD, triplicate.

What is called Ki is the equilibrium dissociation constant of an inhibitor or competing ligand from its target. By IC50 is commonly meant the point on the concentration scale where inhibition reaches its midpoint.

T1 sequence (A0A024B7W1 1420-1472): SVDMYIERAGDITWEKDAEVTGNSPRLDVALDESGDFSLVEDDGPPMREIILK
T1 sequence (A0A024B7W1 1516-1687): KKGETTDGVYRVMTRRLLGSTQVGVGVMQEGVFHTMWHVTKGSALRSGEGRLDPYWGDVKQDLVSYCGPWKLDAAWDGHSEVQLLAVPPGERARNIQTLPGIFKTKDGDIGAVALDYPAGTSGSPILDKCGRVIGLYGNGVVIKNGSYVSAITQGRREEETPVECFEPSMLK

`O=c1c(O)c(-c2cc(O)c(O)c(O)c2)oc2cc(O)cc(O)c12` [Myricetin]: the Ki was 8.9 µM at linked Zika NS2B-NS3pro; 0.77 µM in test [1] (Ki, non-competitive mode, unlinked enzyme, pH 8.5); 0.8 ± 0.1 µM in test [1] (setting [4]); 4.7 µM at Dengue-2 NS2B-NS3pro. The IC50 in test [1] (setting [2]) stood at 1.26 µM; in test [1] (setting [5]) it was 1.3 ± 0.1 µM. Besides, the “Inhibition at 500 μM” value in test [1] (setting [3]) was “Yes”.

Take `O=c1cc(-c2ccc(O)c(O)c2)oc2cc(O)cc(O)c12` [Luteolin]: the “Inhibition at 500 μM” value in test [1] (setting [3]) is “Yes”. Besides, the Ki in test [1] (setting [4]) is 1.4 ± 0.1 µM. In addition, in test [1] (setting [5]), the IC50 is 2.7 ± 0.3 µM.

Turning to `O=c1c(-c2ccc(O)cc2)coc2cc(O)ccc12` [Daidzein], the “inhibitory activity (in words)” value in test [1] is “no inhibitory activity was detected; also recorded: inactive”. Also, the “Inhibition at 500 μM” value in test [1] (setting [3]) is on record as “No”.

As for `COc1cc(-c2oc3cc(O)cc(O)c3c(=O)c2O)ccc1O` [Isorhamnetin], the IC50 in test [1] (setting [2]) is 15.5 µM. Moreover, in test [1] (setting [6]), the Ki is 6.22 µM and 6.2 µM. Also, the “Inhibition at 500 μM” value in test [1] (setting [3]) was “Yes”.

Consider `Oc1cc(O)c2c(c1)O[C@H](c1ccc(O)c(O)c1)[C@@H](O)C2` [Catechin], for which the figures for the “inhibitory activity (in words)” value in test [1] and in test [1] (listed as Catechine) were “inactive” and “no inhibitory activity was detected”, respectively. Besides, the “Inhibition at 500 μM” value in test [1] (setting [3]) is listed as “No”.

As to `Oc1ccc(/C=C/c2cc(O)cc(O)c2)cc1` [Resveratrol], the “inhibitory activity (in words)” value in test [1] is recorded as “no inhibitory effect was detected; also recorded: no detectable inhibitory activity”. Besides, the “Inhibition at 500 μM” value in test [1] (setting [3]) is “No”.

On to `O=c1c(O)c(-c2ccc(O)c(O)c2)oc2cc(O)cc(O)c12` [Quercetin], for which the “Inhibition at 500 μM” value in test [1] (setting [3]) was “Yes”. The Ki was 1.12 µM and 1.1 µM in test [1] (setting [4]); 20.7 µM on Dengue-2 NS2B-NS3pro. The half-maximal inhibitory concentration (IC50) in test [1] (setting [5]) was 2.42 µM and 2.4 µM.

As to `COc1cc(/C=C/C(=O)CC(=O)/C=C/c2ccc(O)c(OC)c2)ccc1O` [Curcumin], in test [1] (setting [3]), the “Inhibition at 500 μM” value is recorded as “Yes”. The Ki in test [1] (setting [4]) was 2.61 µM and 2.6 µM. For the same compound, in test [1] (setting [5]), the IC50 is 3.45 µM and 3.5 µM.

For `O=c1cc(-c2ccc(O)cc2)oc2cc(O)cc(O)c12` [Apigenin], the results for the IC50 in test [1] (setting [2]) and in test [1] (setting [5]) were 56.3 ± 0.9 µM and 56.3 µM, respectively. Besides, in test [1] (setting [6]), the Ki is 34 µM. Moreover, the “Inhibition at 500 μM” value in test [1] (setting [3]) is recorded as “Yes”.
